Measurements as given in paper PMC10937199 (ESMO Open, 2024).

Columns and labels:
[1] = tested on: patients with advanced solid tumors; test: Safety; assay type: in vivo, human; conditions: Part B
[2] = tested on: patients with advanced solid tumors; conditions: Part B, 100-250 mg q.d.
advanced solid tumors = test: Best overall response per RECIST version 1.1, Part B; assay type: in vivo, human

In the case of `COc1ccc([C@@H](O)c2cc(-c3ncnc4cc(N5CCOCC5)ccc34)c(F)cc2Cl)nn1` [Peposertib], the “Serious TEAE” value ([1]; 150 mg q.d., all grade) is reported as 1 (33.3) n (%), the “Serious TEAE, peposertib related” value ([1]; 150 mg q.d., all grade) is reported as 0 n (%) and the “Serious TEAE, radiotherapy related” value ([1]; 150 mg q.d., all grade) is reported as 0 n (%). For the same compound, the “Serious TEAE, treatment related” value ([1]; 150 mg q.d., all grade) was 1 (33.3) n (%), the TEAE ([1]; 150 mg q.d., all grade) was 3 (100.0) n (%) and the “TEAE, peposertib related” value ([1]; 150 mg q.d., all grade) was 1 (33.3) n (%). The “TEAE, radiotherapy related” value ([1]; 150 mg q.d., all grade) was 1 (33.3) n (%), the “TEAE, treatment related” value ([1]; 150 mg q.d., all grade) was 3 (100.0) n (%) and the “TEAEs leading to death” value ([1]; 150 mg q.d., all grade) was 0 n (%). For the same compound, the “Treatment-related AE leading to death” value ([1]; 150 mg q.d., all grade) was 0 n (%), the IRR ([1]; 150 mg q.d., grade ≥3) was 0 n (%) and the “Immune-related AE” value ([1]; 150 mg q.d., grade ≥3) was 0 n (%). The “Serious TEAE” value ([1]; 150 mg q.d., grade ≥3) was 1 (33.3) n (%), the “Serious TEAE, peposertib related” value ([1]; 150 mg q.d., grade ≥3) was 0 n (%) and the “Serious TEAE, radiotherapy related” value ([1]; 150 mg q.d., grade ≥3) was 0 n (%). For the same compound, the “Serious TEAE, treatment related” value ([1]; 150 mg q.d., grade ≥3) was 1 (33.3) n (%), the TEAE ([1]; 150 mg q.d., grade ≥3) was 2 (66.7) n (%) and the “TEAE, peposertib related” value ([1]; 150 mg q.d., grade ≥3) was 1 (33.3) n (%). The “TEAE, radiotherapy related” value ([1]; 150 mg q.d., grade ≥3) was 1 (33.3) n (%), the “TEAE, treatment related” value ([1]; 150 mg q.d., grade ≥3) was 2 (66.7) n (%) and the “TEAEs leading to death” value ([1]; 150 mg q.d., grade ≥3) was 0 n (%). For the same compound, the “Treatment-related AE leading to death” value ([1]; 150 mg q.d., grade ≥3) was 0 n (%), the IRR ([1]; 200 mg q.d., all grade) was 2 (50.0) n (%) and the “Immune-related AE” value ([1]; 200 mg q.d., all grade) was 1 (25.0) n (%). The “Serious TEAE” value ([1]; 200 mg q.d., all grade) was 1 (25.0) n (%), the “Serious TEAE, peposertib related” value ([1]; 200 mg q.d., all grade) was 0 n (%) and the “Serious TEAE, radiotherapy related” value ([1]; 200 mg q.d., all grade) was 0 n (%). The “Serious TEAE, treatment related” value ([1]; 200 mg q.d., all grade) was 0 n (%), the TEAE ([1]; 200 mg q.d., all grade) was 4 (100.0) n (%) and the “TEAE, peposertib related” value ([1]; 200 mg q.d., all grade) was 2 (50.0) n (%). The “TEAE, radiotherapy related” value ([1]; 200 mg q.d., all grade) was 3 (75.0) n (%), the “TEAE, treatment related” value ([1]; 200 mg q.d., all grade) was 4 (100.0) n (%) and the “TEAEs leading to death” value ([1]; 200 mg q.d., all grade) was 0 n (%). For the same compound, the “Treatment-related AE leading to death” value ([1]; 200 mg q.d., all grade) was 0 n (%), the IRR ([1]; 200 mg q.d., grade ≥3) was 0 n (%) and the “Immune-related AE” value ([1]; 200 mg q.d., grade ≥3) was 0 n (%). For the same compound, the “Serious TEAE” value ([1]; 200 mg q.d., grade ≥3) was 1 (25.0) n (%), the “Serious TEAE, peposertib related” value ([1]; 200 mg q.d., grade ≥3) was 0 n (%) and the “Serious TEAE, radiotherapy related” value ([1]; 200 mg q.d., grade ≥3) was 0 n (%). For the same compound, the “Serious TEAE, treatment related” value ([1]; 200 mg q.d., grade ≥3) was 0 n (%), the TEAE ([1]; 200 mg q.d., grade ≥3) was 1 (25.0) n (%) and the “TEAE, peposertib related” value ([1]; 200 mg q.d., grade ≥3) was 0 n (%). For the same compound, the “TEAE, radiotherapy related” value ([1]; 200 mg q.d., grade ≥3) was 0 n (%), the “TEAE, treatment related” value ([1]; 200 mg q.d., grade ≥3) was 0 n (%) and the “TEAEs leading to death” value ([1]; 200 mg q.d., grade ≥3) was 0 n (%). The “Treatment-related AE leading to death” value ([1]; 200 mg q.d., grade ≥3) was 0 n (%), the Peposertib-related pneumonitis ([1]; 250 mg q.d.) was 11.1% and the “Serious TEAE: dehydration” value ([1]; 250 mg q.d.) was 2/9. The IRR ([1]; 250 mg q.d., all grade) was 3 (33.3) n (%), the “Immune-related AE” value ([1]; 250 mg q.d., all grade) was 2 (22.2) n (%) and the “Serious TEAE” value ([1]; 250 mg q.d., all grade) was 6 (66.7) n (%). The “Serious TEAE, peposertib related” value ([1]; 250 mg q.d., all grade) was 1 (11.1) n (%), the “Serious TEAE, radiotherapy related” value ([1]; 250 mg q.d., all grade) was 1 (11.1) n (%) and the “Serious TEAE, treatment related” value ([1]; 250 mg q.d., all grade) was 2 (22.2) n (%). For the same compound, the TEAE ([1]; 250 mg q.d., all grade) was 9 (100.0) n (%), the “TEAE, peposertib related” value ([1]; 250 mg q.d., all grade) was 5 (55.6) n (%) and the “TEAE, radiotherapy related” value ([1]; 250 mg q.d., all grade) was 5 (55.6) n (%). For the same compound, the “TEAE, treatment related” value ([1]; 250 mg q.d., all grade) was 8 (88.9) n (%), the “TEAEs leading to death” value ([1]; 250 mg q.d., all grade) was 0 n (%) and the “Treatment-related AE leading to death” value ([1]; 250 mg q.d., all grade) was 0 n (%). For the same compound, the IRR ([1]; 250 mg q.d., grade ≥3) was 1 (11.1) n (%), the “Immune-related AE” value ([1]; 250 mg q.d., grade ≥3) was 2 (22.2) n (%) and the “Serious TEAE” value ([1]; 250 mg q.d., grade ≥3) was 6 (66.7) n (%). For the same compound, the “Serious TEAE, peposertib related” value ([1]; 250 mg q.d., grade ≥3) was 1 (11.1) n (%), the “Serious TEAE, radiotherapy related” value ([1]; 250 mg q.d., grade ≥3) was 1 (11.1) n (%) and the “Serious TEAE, treatment related” value ([1]; 250 mg q.d., grade ≥3) was 2 (22.2) n (%). The TEAE ([1]; 250 mg q.d., grade ≥3) was 7 (77.8) n (%), the “TEAE, peposertib related” value ([1]; 250 mg q.d., grade ≥3) was 1 (11.1) n (%) and the “TEAE, radiotherapy related” value ([1]; 250 mg q.d., grade ≥3) was 1 (11.1) n (%). The “TEAE, treatment related” value ([1]; 250 mg q.d., grade ≥3) was 3 (33.3) n (%), the “TEAEs leading to death” value ([1]; 250 mg q.d., grade ≥3) was 0 n (%) and the “Treatment-related AE leading to death” value ([1]; 250 mg q.d., grade ≥3) was 0 n (%). The “Discontinuation of all study treatments due to AEs” value ([1]; all dose levels) was 6 (31.6%), the “Peposertib-related TEAE: nausea” value ([1]; all dose levels) was 5 (26.3%) and the “Peposertib-related TEAE: vomiting” value ([1]; all dose levels) was 3 (15.8%). For the same compound, the DLT [2] was “no DLT was reported”, the “Patients with complete response (CR) or partial response (PR)” value (advanced solid tumors) was “no patients” and the “Best overall response of stable disease (SD) or non-CR/non-PD” value (advanced solid tumors; all dose levels) was 31.6%.
